Our source for the IC50 values is US20220340875A1, “METHODS OF CULTURING AND/OR EXPANDING STEM CELLS AND/OR LINEAGE COMMITTED PROGENITOR CELLS USING AMIDO COMPOUNDS” (IDEAYA BIOSCIENCES, INC., priority 2018, published 2022).

The target of this assay is T1, hAhR (Homo sapiens, UniProt P35869).
T1 construct: Stably integrated DRE-luciferase cell lines were generated by transducing the both cell lines with Cignal XRE luciferase reporter (Qiagen) lentiviral particles; endogenous in cells
T1 sequence (P35869 11-848): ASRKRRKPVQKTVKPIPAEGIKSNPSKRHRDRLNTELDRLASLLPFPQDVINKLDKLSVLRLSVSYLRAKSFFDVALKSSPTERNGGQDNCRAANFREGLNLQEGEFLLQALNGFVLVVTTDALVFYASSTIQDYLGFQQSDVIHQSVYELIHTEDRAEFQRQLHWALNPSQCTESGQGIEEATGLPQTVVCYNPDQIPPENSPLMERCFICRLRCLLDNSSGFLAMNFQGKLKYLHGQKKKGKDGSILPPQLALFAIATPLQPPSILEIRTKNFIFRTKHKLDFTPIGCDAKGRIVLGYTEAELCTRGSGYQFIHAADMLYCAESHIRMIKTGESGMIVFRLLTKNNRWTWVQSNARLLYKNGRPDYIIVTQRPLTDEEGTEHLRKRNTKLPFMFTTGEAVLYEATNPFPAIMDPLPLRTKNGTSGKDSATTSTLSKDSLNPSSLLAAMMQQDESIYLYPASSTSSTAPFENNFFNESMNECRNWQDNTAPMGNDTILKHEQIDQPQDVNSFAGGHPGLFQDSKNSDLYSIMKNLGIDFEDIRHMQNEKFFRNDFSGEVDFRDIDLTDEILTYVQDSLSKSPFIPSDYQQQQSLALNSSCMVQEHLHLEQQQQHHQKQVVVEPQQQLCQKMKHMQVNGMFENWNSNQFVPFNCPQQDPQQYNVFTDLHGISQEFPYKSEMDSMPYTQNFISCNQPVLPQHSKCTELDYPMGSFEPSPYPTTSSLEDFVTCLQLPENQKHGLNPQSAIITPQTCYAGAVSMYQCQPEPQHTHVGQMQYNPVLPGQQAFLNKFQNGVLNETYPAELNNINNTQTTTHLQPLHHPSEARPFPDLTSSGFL
The assay is described as follows: AhR DRE-luciferase reporter transcriptional assay, antagonist mode (TCDD-induced). To be noted: HEPG2 DRE-Luc cells, 3 nM TCDD, 24 hour incubation, relative IC50. It counts as cell-based. In outline: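 HepG2 cells carrying a stably integrated DRE-luciferase reporter, in OptiMEM with 0.5% FBS; semi-log compound doses added with 3 nM TCDD, 24 h incubation, firefly luciferase read-out. Percent maximal activity normalised between vehicle ± TCDD; relative IC50 taken as half-reduction between curve plateaus.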

Compound `Cc1cc(-c2ccc3cc(-c4nnn[nH]4)ccc3n2)ccc1NC(=O)c1ccnn1C` [Example 063, N-(4-(6-(1H-tetrazol-5-yl)quinolin-2-yl)-2-methylphenyl)-1-methyl-1H-pyrazole-5-carboxamide] displayed an IC50 of 1000 to 10000 nM. Next, `Cc1cc(-c2ccc3cc(F)cc(C#N)c3n2)ccc1NC(=O)c1ccnn1C` [Example 054, N-(4-(8-cyano-6-fluoroquinolin-2-yl)-2-methylphenyl)-1-methyl-1H-pyrazole-5-carboxamide]: 200 to 500 nM. For the compound `Cc1cc(-c2ccc3cccc(C)c3n2)ccc1NC(=O)OC(C)(C)C` [Example 017, tert-butyl (2-methyl-4-(8-methylquinolin-2-yl)phenyl)carbamate], the IC50 fell in the range of 1000 to 10000 nM.

In turn, `Cc1cc(-c2ccc3cc(C(F)(F)F)ccc3n2)c(C)cc1NC(=O)c1nn(C)cc1C` [Example 208, N-(2,5-dimethyl-4-(6-(trifluoromethyl)quinolin-2-yl)phenyl)-1,4-dimethyl-1H-pyrazole-3-carboxamide] gave an IC50 of 1000 to 10000 nM. With `Cc1cc(-c2ccc3cc(C(N)=O)ccc3n2)ccc1NC(=O)c1ccnn1C` [Example 074, 2-(3-methyl-4-(1-methyl-1H-pyrazole-5-carboxamido)phenyl)quinoline-6-carboxamide], the half-maximal inhibitory concentration (IC50) was in the range of 1000 to 10000 nM. For `Cc1cc(-c2ccc3c(ccn3CC(F)(F)F)n2)ccc1NC(=O)c1ccnn1C` [Example 084, 1-methyl-N-(2-methyl-4-(1-(2,2,2-trifluoroethyl)-1H-pyrrolo[3,2-b]pyridin-5-yl)phenyl)-1H-pyrazole-5-carboxamide], the IC50 was 1000 to 10000 nM. Take `Cc1cc(-c2ncc3cc(C(F)(F)F)ccc3n2)ccc1NC(=O)c1ccncc1C` [Example 121, 3-methyl-N-(2-methyl-4-(6-(trifluoromethyl)quinazolin-2-yl)phenyl)isonicotinamide]: the IC50 is < 200 nM. Next, `Cc1cc(C(=O)Nc2ccc(-c3ncc4nc(C(F)(F)F)cc(C)c4n3)cc2F)ccn1` [Example 164, N-(2-fluoro-4-(8-methyl-6-(trifluoromethyl)pyrido[3,2-d]pyrimidin-2-yl)phenyl)-2-methylisonicotinamide]: < 200 nM. Turning to `Cc1cc(-c2ccc3cc(C(F)(F)F)cc(C)c3n2)ccc1NC(=O)c1ccnn1C` [Example 203, 1-methyl-N-(2-methyl-4-(8-methyl-6-(trifluoromethyl)quinolin-2-yl)phenyl)-1H-pyrazole-5-carboxamide], the IC50 is < 200 nM.

On to `CNC(=O)c1cc(C(=O)N(C)c2ccc(-c3ncc4nc(C(F)(F)F)cc(C)c4n3)cc2C)ccn1` [Example 169, N2,N4-dimethyl-N4-(2-methyl-4-(8-methyl-6-(trifluoromethyl)pyrido-[3,2-d]pyrimidin-2-yl)phenyl)pyridine-2,4-dicarboxamide], for which the IC50 was < 200 nM. For the compound `Cn1nccc1C(=O)Nc1ccc(-c2ccc3cc(F)ccc3n2)cc1OC(F)(F)F` [Example 047, N-(4-(6-fluoroquinolin-2-yl)-2-(trifluoromethoxy)phenyl)-1-methyl-1H-pyrazole-5-carboxamide], the IC50 lay within 1000 to 10000 nM. On to `Cc1cc(-c2ncc3cc(C(F)(F)F)ccc3n2)ccc1N(C)C(=O)c1nn(C)cc1C` [Example 214, N,1,4-trimethyl-N-(2-methyl-4-(6-(trifluoromethyl)quinazolin-2-yl)phenyl)-1H-pyrazole-3-carboxamide], for which the IC50 lay in the range of 200 to 500 nM. Next, `Cc1cc(C(=O)N(C)c2ccc(-c3ncc4nc(C(F)(F)F)cc(C)c4n3)cc2C)ccn1` [Example 150, N,2-dimethyl-N-(2-methyl-4-(8-methyl-6-(trifluoromethyl)pyrido[3,2-d]pyrimidin-2-yl)phenyl)isonicotinamide]: < 200 nM; `Cc1cnccc1C(=O)N(C)c1ccc(-c2ncc3cc(C(F)(F)F)ccc3n2)cc1C` [Example 122, N,3-dimethyl-N-(2-methyl-4-(6-(trifluoromethyl)quinazolin-2-yl)phenyl)isonicotinamide]: < 200 nM. On to `Cc1cc(-c2ccc3nc(C(F)(F)F)ccc3n2)ccc1N(C)C(=O)c1ccnn1CCO` [Example 210, 1-(2-hydroxyethyl)-N-methyl-N-(2-methyl-4-(6-(trifluoromethyl)-1,5-naphthyridin-2-yl)phenyl)-1H-pyrazole-5-carboxamide], for which the IC50 was < 200 nM. For `Cc1cc(-c2ncc3cc(C(F)(F)F)ccc3n2)ccc1N(C)C(=O)c1ncc[nH]1` [Example 132, N-methyl-N-(2-methyl-4-(6-(trifluoromethyl)quinazolin-2-yl)phenyl)-1H-imidazole-2-carboxamide], the IC50 is < 200 nM. Consider `Cc1cc(-c2nc(N)c3nc(C(F)(F)F)cc(C)c3n2)ccc1N(C)C(=O)c1ccnn1C` [Example 154, N-(4-(4-amino-8-methyl-6-(trifluoromethyl)pyrido[3,2-d]pyrimidin-2-yl)-2-methylphenyl)-N,1-dimethyl-1H-pyrazole-5-carboxamide], for which the IC50 is < 200 nM. As to `Cc1cc(-c2ccc3cc(C(F)(F)F)ccc3n2)ccc1N(C)C(=O)c1ccnn1C` [Example 002, N,1-Dimethyl-N-(2-methyl-4-(6-(trifluoromethyl)quinolin-2-yl)phenyl)-1H-pyrazole-5-carboxamide], the concentration for half-maximal inhibition (IC50) was < 200 nM. Compound `Cc1cc(-c2ccc3cc(F)ccc3n2)ccc1NC(=O)c1ccnnc1` [Example 029, N-(4-(6-fluoroquinolin-2-yl)-2-methylphenyl)pyridazine-4-carboxamide] gave a concentration for half-maximal inhibition (IC50) of 1000 to 10000 nM. Take `Cc1cc(NC(=O)c2ccnn2C)cnc1-c1ccc2cc(F)ccc2n1` [Example 046, N-(6-(6-fluoroquinolin-2-yl)-5-methylpyridin-3-yl)-1-methyl-1H-pyrazole-5-carboxamide]: the IC50 fell in the range of 500 to 1000 nM. For the compound `Cc1cc(-c2ncc3nc(C(F)(F)F)cc(C)c3n2)ccc1N(C)C(=O)c1cc(C(N)=O)nn1CC#N` [Example 198, 1-(cyanomethyl)-N5-methyl-N5-(2-methyl-4-(8-methyl-6-(trifluoro-methyl)pyrido[3,2-d]pyrimidin-2-yl)phenyl)-1H-pyrazole-3,5-dicarboxamide], the IC50 is < 200 nM. The compound `Cc1cc(-c2ccc3cc(OC(F)(F)F)ccc3n2)ccc1N(C)C(=O)c1ccnn1C` [Example 010, N,1-dimethyl-N-(2-methyl-4-(6-(trifluoromethoxy)quinolin-2-yl)phenyl)-1H-pyrazole-5-carboxamide] registered an IC50 of 200 to 500 nM. In the case of `Cc1cc(-c2ncc3cc(C(F)(F)F)ccc3n2)ccc1N(C)C(=O)c1cc(C(N)=O)nn1C` [Example 222, N5,1-dimethyl-N5-(2-methyl-4-(6-(trifluoromethyl)quinazolin-2-yl)phenyl)-1H-pyrazole-3,5-dicarboxamide], the half-inhibitory concentration (IC50) was < 200 nM. On to `Cc1cc(C(=O)Nc2ccc(-c3ncc4nc(C(F)(F)F)cc(C)c4n3)cc2C)ccn1` [Example 149, 2-methyl-N-(2-methyl-4-(8-methyl-6-(trifluoromethyl)pyrido[3,2-d]pyrimidin-2-yl)phenyl)isonicotinamide], for which the concentration for half-maximal inhibition (IC50) was < 200 nM.

As for `Cc1cc(-c2ccc3cc(F)ccc3n2)c(F)cc1NC(=O)c1ccnn1C` [Example 067, N-(5-fluoro-4-(6-fluoroquinolin-2-yl)-2-methylphenyl)-1-methyl-1H-pyrazole-5-carboxamide], the IC50 fell in the range of 500 to 1000 nM. For `Cc1c(-c2ccc3cc(C(F)(F)F)ccc3n2)ccc(NC(=O)c2ccnn2C)c1F` [Example 005, N-(2-fluoro-3-methyl-4-(6-(trifluoromethyl)quinolin-2-yl)phenyl)-1-methyl-1H-pyrazole-5-carboxamide], the IC50 was in the range of 1000 to 10000 nM. As for `CNC(=O)c1cc(C(=O)Nc2ccc(-c3ncc4nc(C(F)(F)F)cc(C)c4n3)cc2C)ccn1` [Example 167, N2-methyl-N4-(2-methyl-4-(8-methyl-6-(trifluoromethyl)pyrido[3,2-d]pyrimidin-2-yl)phenyl)pyridine-2,4-dicarboxamide], the figure is < 200 nM; as for `Cc1cc(-c2ncc3cc(C(F)(F)F)ccc3n2)ccc1N(C)C(=O)c1ccnc(C(N)=O)c1` [Example 152, N4-methyl-N4-(2-methyl-4-(6-(trifluoromethyl)quinazolin-2-yl)phenyl)pyridine-2,4-dicarboxamide], < 200 nM; as for `COc1cccc2ccc(-c3ccc(NC(=O)c4ccnn4C)c(C)c3)nc12` [Example 056, N-(4-(8-methoxyquinolin-2-yl)-2-methylphenyl)-1-methyl-1H-pyrazole-5-carboxamide], 500 to 1000 nM. Next, `Cc1cc(-c2ccc3nc(C(F)(F)F)cc(C)c3n2)ccc1N(C)C(=O)c1ccnn1CCO` [Example 223, 1-(2-hydroxyethyl)-N-methyl-N-[2-methyl-4-[8-methyl-6-(trifluoromethyl)-1,5-naphthyridin-2-yl]phenyl]-1H-pyrazole-5-carboxamide]: < 200 nM.

Usually IC50 stands for the midpoint of a concentration-inhibition curve. Lower therefore signals higher potency.
